Results on 19 compounds are retold here after patent US8012998B2, “Pyrrolidine aryl-ether as NK-3 receptor antagonists” (Hoffmann—LA Roche Inc., priority 2007, dated 2011).

pKi: −log10 of the molar value.

The experiment concerns the target T1, human NK3 receptor (Homo sapiens, UniProt P29371).
T1 construct: expressed in transfected cells; host or cells: HEK293 cells (transient expression), membrane preparation
T1 sequence (P29371 1-465): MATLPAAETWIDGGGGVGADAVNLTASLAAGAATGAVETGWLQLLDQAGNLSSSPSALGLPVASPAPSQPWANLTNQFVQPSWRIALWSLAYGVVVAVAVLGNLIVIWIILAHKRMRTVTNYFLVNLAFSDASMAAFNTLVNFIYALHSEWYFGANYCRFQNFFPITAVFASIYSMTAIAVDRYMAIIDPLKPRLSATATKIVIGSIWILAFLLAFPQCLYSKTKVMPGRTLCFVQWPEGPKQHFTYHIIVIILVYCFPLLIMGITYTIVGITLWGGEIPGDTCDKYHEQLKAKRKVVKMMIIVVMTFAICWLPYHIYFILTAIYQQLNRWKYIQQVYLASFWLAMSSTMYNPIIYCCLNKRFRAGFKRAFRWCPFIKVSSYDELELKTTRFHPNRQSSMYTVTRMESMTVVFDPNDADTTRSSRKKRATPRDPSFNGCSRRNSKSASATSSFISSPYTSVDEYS
The experiment is described as follows: [3H]SR142801 competition binding assay (hNK3 receptor binding). The conditions noted are these: [3H]SR142801 radioligand; membranes from HEK293 cells transiently expressing recombinant human NK3 receptor; Ki by Cheng-Prussoff; read-out: KiNK3 h. As for the experimental part:
[^3H]SR^142801 Competition Binding Assay
hNK3 receptor binding experiment were performed using [^3H]SR^142801 (Catalog No. TRK1035, specific activity: 74.0 Ci/mmol, Amersham, GE Healthcare UK limited, Buckinghamshire, UK) and membrane isolated from HEK293 cells transiently expressing recombinant human NK3 receptor. After thawing, the membrane homogenates were centrifuged at 48,000×g for 10 min at 4° C., the pellets were resuspended in the 50 mM Tris-HCl, 4 mM MnCl2, 1 μM phosphoramidon, 0.1% BSA binding buffer at pH 7.4 to a final assay concentration of 5 μg protein/well. […] At the end of the incubation, membranes were filtered onto unitfilter (96-well white microplate with bonded GF/C filter preincubated 1 h in 0.3% PEI +0.3% BSA, Packard BioScience, Meriden, Conn.) with a Filtermate 196 harvester (Packard BioScience) and washed 4 times with ice-cold 50 mM Tris-HCl, pH 7.4 buffer. Nonspecific binding was measured in the presence of 10 μM SB222200 for both radioligands. The radioactivity on the filter was counted (5 min) on a Packard Top-count microplate scintillation counter with quenching correction after addition of 45 μl of microscint 40 (Canberra Packard S.A., Zutrich, Switzerland) and shaking for 1 h. Inhibition curves were fitted according to the Hill equation: y=100/(1+(x/IC50)^nH), where nH=slope factor using Excel-fit 4 software (Microsoft). IC50 values were derived from the inhibition curve and the affinity constant (Ki) values were calculated using the Cheng-Prussoff equation Ki=IC50/(1+[L]/KD) where [L] is the concentration of radioligand and KD is its dissociation constant at the receptor, derived from the saturation isotherm. All experiments were performed in duplicate and the mean ± standard error (SEM) of the individual Ki values was calculated.
Take `Cc1nccn1-c1ccc(C(=O)N2C[C@H]([C@H](C)Oc3ccc(C#N)cn3)[C@@H](c3ccc(Cl)c(Cl)c3)C2)cc1` (racemic) [Example 64, 6-((SR)-1-{(3RS,4SR)-4-(3,4-Dichloro-phenyl)-1-[4-(2-methyl-imidazol-1-yl)-benzoyl]-pyrrolidin-3-yl}-ethoxy)-nicotinonitrile]: the pKi is 7.45.

Take `CCc1ncc(C(=O)N2C[C@H]([C@H](C)Oc3ccc(C#N)cn3)[C@@H](c3ccc(Cl)c(Cl)c3)C2)cc1C` (racemic) [Example 86, 6-{(SR)-1-[(3RS,4SR)-4-(3,4-Dichloro-phenyl)-1-(6-ethyl-5-methyl-pyridine-3-carbonyl)-pyrrolidin-3-yl]-ethoxy}-nicotinonitrile]: the pKi is 8.37.

For the compound `Cc1nccc(C(=O)N2C[C@H]([C@H](C)Oc3ccc(C#N)cn3)[C@@H](c3ccc(Cl)c(Cl)c3)C2)n1` (racemic) [Example 95, 6-{(SR)l-1[-(3RS,4SR)-4-(3,4-Dichloro-phenyl)-1-(2-methyl-pyrimidine-4-carbonyl)-pyrrolidin-3-yl]-ethoxy}-nicotinonitrile], the pKi was 7.28.

In the case of `Cc1ccnc(C(=O)N2C[C@H]([C@H](C)Oc3ccc(C#N)cn3)[C@@H](c3ccc(Cl)c(Cl)c3)C2)c1` (racemic) [Example 92, 6-{(SR)-1-[(3RS,4SR)-4-(3,4-Dichloro-phenyl)-1-(4-methyl-pyridine-2-carbonyl)-pyrrolidin-3-yl]-ethoxy}-nicotinonitrile], the pKi was 7.47.

For `Cc1noc(-c2ccc(C(=O)N3C[C@H]([C@H](C)Oc4ccc(C#N)cn4)[C@@H](c4ccc(Cl)c(Cl)c4)C3)cc2)n1` (racemic) [Example 60, 6-((SR)-1-{(3RS,4SR)-4-(3,4-Dichloro-phenyl)-1-[4-(3-methyl-[1,2,4]oxadiazol-5-yl)-benzoyl]-pyrrolidin-3-yl}-ethoxy)-nicotinonitrile], the pKi is 8.96.

Turning to `COc1ccc(C(=O)N2C[C@@H]([C@@H](C)Oc3ccc(F)cn3)[C@H](c3ccc(Cl)c(Cl)c3)C2)cn1` (racemic) [Example 26, {(3RS,4SR)-3-(3,4-Dichloro-phenyl)-4-[(RS)-1-(5-fluoro-pyridin-2-yloxy)-ethyl]-pyrrolidin-1-yl}-(6-methoxy-pyridin-3-yl)-methanone], the pKi was 7.18.

In the case of `C[C@@H](Oc1ccc(Cl)cn1)[C@@H]1CN(C(=O)c2ccc(C#N)cc2)C[C@H]1c1ccc(Cl)c(Cl)c1` (racemic) [Example 49, 4-[(3SR,4RS)-3-[(RS)-1-(5-Chloro-pyridin-2-yloxy)-ethyl]-4-(3,4-dichloro-phenyl)-pyrrolidin-1-carbonyl]-benzonitrile], the pKi was 7.65.

For `Cc1ncc(C(=O)N2C[C@H]([C@H](C)Oc3ccc(C#N)cn3)[C@@H](c3ccc(F)c(Cl)c3)C2)cn1` [Example 102, 6-{(S)-1-[(3R,4S)-4-(3-Chloro-4-fluoro-phenyl)-1-(2-methyl-pyrimidine-5-carbonyl)-pyrrolidin-3-yl]-ethoxy}-nicotinonitrile], the pKi is 7.04.

For `Cc1ccc(C(=O)N2C[C@H]([C@H](C)Oc3ccc(C#N)cn3)[C@@H](c3ccc(Cl)c(Cl)c3)C2)cn1` (racemic) [Example 68, 6-{(SR)-1-[(3RS,4SR)-4-(3,4-Dichloro-phenyl)-1-(6-methyl-pyridine-3-carbonyl)-pyrrolidin-3-yl]-ethoxy}-nicotinonitrile], the pKi was 7.83.

Take `Cc1cc(C(=O)N2C[C@H]([C@H](CO)Oc3ccc(Cl)cn3)[C@@H](c3ccc(Cl)c(Cl)c3)C2)cnn1` [Example 112, [(3R,4S)-3-[(R)-1-(5-Chloro-pyridin-2-yloxy)-2-hydroxy-ethyl]-4-(3,4-dichloro-phenyl)-pyrrolidin-1-yl]-(6-methyl-pyridazin-4-yl)-methanone]: the pKi is 8.30.

`Cc1ncc(C(=O)N2CC(c3ccc(Cl)c(Cl)c3)[C@@H]([C@H](C)Oc3ccc(Cl)cn3)C2)cn1` (single isomer, unassigned) [Example 40]: the pKi was 8.17.

As to “[(3S,4R)-3-[(R)-1-(5-Chloro-pyridin-2-yloxy)-ethyl]-4-(3,4-dichloro-phenyl)-pyrrolidin-1-yl]-(6-methoxy-pyridin-3-yl)-methanone and [(3R,4S)-3-[(S)-1-(5-Chloro-pyridin-2-yloxy)-ethyl]-4-(3,4-dichloro-phenyl)-pyrrolidin-1-yl]-(6-methoxy-pyridin-3-yl)-methanone [Example 21]”, the pKi was 8.25.

For the compound `Cc1cc(C(=O)N2C[C@@H]([C@@H](C)Oc3ccc(Cl)cn3)[C@H](c3ccc(Cl)c(Cl)c3)C2)c(C)o1` (racemic) [Example 28, [(3SR,4RS)-3-[(RS)-1-(5-Chloro-pyridin-2-yloxy)-ethyl]-4-(3,4-dichloro-phenyl)-pyrrolidin-1-yl]-(2,5-dimethyl-furan-3-yl)-methanone], the pKi was 7.23.

Consider `C#Cc1ccc(O[C@@H](C)[C@H]2CN(C(=O)c3cnnc(C)c3)C[C@@H]2c2ccc(Cl)c(Cl)c2)nc1` (racemic) [Example 110, {(3SR,4RS)-3-(3,4-Dichloro-phenyl)-4-[(SR)-1-(5-ethynyl-pyridin-2-yloxy)-ethyl]-pyrrolidin-1-yl}-(6-methyl-pyridazin-4-yl)-methanone], for which the pKi was 7.75.

Turning to `C[C@H](Oc1ccc(C#N)cn1)[C@H]1CN(C(=O)c2ccc(C#N)nc2)C[C@@H]1c1ccc(Cl)c(Cl)c1` (racemic) [Example 52, 6-{(SR)-1-[(3RS,4SR)-4-(3,4-Dichloro-phenyl)-1-(6-cyano-pyridine-3-carbonyl)-pyrrolidin-3-yl]-ethoxy}-nicotinonitrile], the pKi was 8.27.

As to `C[C@@H](Oc1ccc(Cl)cn1)[C@@H]1CN(C(=O)c2cnc(S(C)(=O)=O)nc2)C[C@H]1c1ccc(Cl)c(Cl)c1` (racemic) [Example 51, [(3SR,4RS)-3-[(RS)-1-(5-Chloro-pyridin-2-yloxy)-ethyl]-4-(3,4-dichloro-phenyl)-pyrrolidin-1-yl]-(2-methanesulfonyl-pyrimidin-5-yl)-methanone], the pKi was 7.10.

On to `Cc1cc(C(=O)N2C[C@H]([C@H](C)Oc3ccc(C(F)(F)F)cn3)[C@@H](c3ccc(Cl)cc3)C2)cnn1` [Example 119, {(3S,4R)-3-(4-Chloro-phenyl)-4-[(S)-1-(5-trifluoromethyl-pyridin-2-yloxy)-ethyl]-pyrrolidin-1-yl}-(6-methyl-pyridazin-4-yl)-methanone], for which the pKi was 8.52.

On to `C[C@H](Oc1ccc(C#N)cn1)[C@H]1CN(C(=O)c2cnc(C3CC3)nc2)C[C@@H]1c1ccc(Cl)c(Cl)c1` [Example 84, 6-{(S)-1[-(3R,4S)-1-(2-Cyclopropyl-pyrimidine-5-carbonyl)-4-(3,4-dichloro-phenyl)-pyrrolidin-3-yl]-ethoxy}-nicotinonitrile], for which the pKi was 7.66.

For the compound `C[C@H](Oc1ccc(C#N)cn1)[C@H]1CN(C(=O)c2ccc(CN(C)C)nc2)C[C@@H]1c1ccc(Cl)c(Cl)c1` (racemic) [Example 43, 6-{(SR)-1-[(3RS,4SR)-4-(3,4-Dichloro-phenyl)-1-(6-dimethylaminomethyl-pyridine-3-carbonyl)-pyrrolidin-3-yl]-ethoxy}-nicotinonitrile], the pKi was 7.61.
